Laboratory results from patent US20230065953A1, “NOVEL HETEROARYL-TRIAZOLE COMPOUNDS AS PESTICIDES” (Bayer Aktiengesellschaft, priority 2019, published 2023).

Assays:
[1] = system: larvae of the diamondback moth (Plutella xylostella); assay: Plutella xylostella spray test (PLUTMA), comparison; type: in vivo; settings: 168 h, 7 dat, read-out: % Efficacy
Description: Plutella xylostella—spray test (PLUTMA) • Solvent: 14 parts by weight of dimethylformamide • Emulsifier: alkylaryl polyglycol ether
(§1) To produce a suitable preparation of active compound, 1 part by weight of active compound is mixed with the stated amount of solvent and is diluted with water, containing an emulsifier concentration of 1000 ppm, to the desired concentration. Further test concentrations are prepared by dilution with emulsifier containing water. Ammonium salt and/or penetration enhancer in a dosage of 1000 ppm are added to the desired concentration if necessary.
Cabbage leaves (Brassica oleracea) are treated by being sprayed with the preparation of the active compound of the desired concentration and are infested with larvae of the diamondback moth (Plutella xylostella).
After the specified period of time, mortality in % is determined. 100% means all the caterpillars have been killed and 0% means none of the caterpillars have been killed.

[2] = system: caterpillars of the fall army worm (Spodoptera frugiperda); assay: Spodoptera frugiperda spray test (SPODFR, cotton leaves), comparison; type: in vivo; settings: 168 h, 7 dat, read-out: % Efficacy
Description: Spodoptera fruaiperda—Spray Test (SPODFR) • Solvent: 14 parts by weight of dimethylformamide • Emulsifier: alkylaryl polyglycol ether
as §1
Cotton leaves (Gossypium hirsutum) are treated by being sprayed with the preparation of the active compound of the desired concentration and are infested with caterpillars of the fall army worm (Spodoptera frugiperda).
After the specified period of time mortality in % is determined. 100% means all the caterpillars have been killed and 0% means none of the caterpillars have been killed.

Question: With `C[C@H](NC(=O)c1cc(Cl)cc(C(F)(F)F)c1)c1ncnn1-c1ncc(C(F)(F)F)s1` [I-085] as the compound, how does the mortality at 20 ppm [1] read?
Answer: 40%

Question: What about the Emax at 4 ppm [2] of the same compound?
Answer: 20%
